Source: PubChem BioAssay AID1996
In brackets after ≈: the same amount, converted by molar mass.

details: buffer; pH 7.4; 200.0 µM

Which solubility kinetic does the source give for COc1ccc(OC)c(/C=C/c2ccc3cccc(O)c3n2)c1 here?
Its solubility kinetic is < 0.7 µg/mL.

With CC1CCCCC12NC(=O)N(CC(=O)Nc1nccs1)C2=O (stereo not drawn) as the compound, how does the solubility kinetic read?
The solubility kinetic was > 48.4 µg/mL.

Which solubility kinetic does the source give for Cc1cc(C)c(C(N)=O)c(SCC(=O)c2cc(C)n(-c3cc(C)on3)c2C)n1 here?
Its solubility kinetic is 1.9 µg/mL (≈ 4.77 µM).

For O=C(CN1CCN(c2ccc(O)cc2)CC1)Nc1ccc(S(=O)(=O)N2CCCC2)cc1, which solubility kinetic is on record?
The solubility kinetic was 44.6 µg/mL (≈ 100 µM).

For Cl.Nc1ncnc2sc3c(c12)CCNC3, which solubility kinetic is on record?
The solubility kinetic was > 36.4 µg/mL.

Which solubility kinetic does the source give for COc1ccc(CNc2nc3ccccc3n2C)c(O)c1 here?
Its solubility kinetic is 10.7 µg/mL (≈ 37.8 µM).

Which solubility kinetic does the source give for COc1cc2c(cc1OC)C(c1cccc(Cl)c1)CC(=O)N2 (stereo not drawn) here?
Its solubility kinetic is 38 µg/mL (≈ 120 µM).

Which solubility kinetic does the source give for CS(=O)(=O)Nc1ccc(C(=O)Nc2ccc3c(c2)OCO3)cc1 here?
The solubility kinetic was 6.2 µg/mL (≈ 18.5 µM).

Which solubility kinetic does the source give for Nc1nc2c(s1)COc1ccccc1-2 here?
Its solubility kinetic is > 30.6 µg/mL.

With O/N=C/c1cc2ccccc2n1Cc1ccccc1F as the compound, how does the solubility kinetic read?
The solubility kinetic was 0.5 µg/mL (≈ 1.86 µM).

For O=C(N1CCCCC1)N1CCN(S(=O)(=O)c2ccccc2)CC1, which solubility kinetic is on record?
The solubility kinetic was > 50.6 µg/mL.

Which solubility kinetic does the source give for CC(=O)c1cccc(NC(=O)c2ccccc2-c2ccccc2C(=O)O)c1 here?
The solubility kinetic was > 53.9 µg/mL.

For Cc1cccc(NC(=O)CCS(=O)(=O)c2ccccc2)c1, which solubility kinetic is on record?
Its solubility kinetic is > 45.5 µg/mL.

With Cc1ccc(C)c(OCC(=O)O/N=C(\N)c2cccc([N+](=O)[O-])c2)c1 as the compound, how does the solubility kinetic read?
Its solubility kinetic is 1.2 µg/mL (≈ 3.5 µM).

Which solubility kinetic does the source give for O=C(N/C(=C/c1ccccc1Cl)C(=O)N1CCCC1)c1ccccc1 here?
Its solubility kinetic is > 53.2 µg/mL.

With Cc1ccc2[nH]cc(CCNS(=O)(=O)c3ccc(F)cc3)c2c1 as the compound, how does the solubility kinetic read?
The solubility kinetic was 23 µg/mL (≈ 69.2 µM).

With O=c1ccc(C(F)(F)F)cn1Cc1cc(=O)n2ccsc2n1 as the compound, how does the solubility kinetic read?
The solubility kinetic was 44.2 µg/mL (≈ 135 µM).

With Cc1ccc(NC(=O)Nc2ccc3c(c2)C(=O)OC3)cc1Cl as the compound, how does the solubility kinetic read?
The solubility kinetic was < 0.3 µg/mL.

For C=CCC1c2cccc(C(=O)O)c2C(=O)N1c1cccc(OC)c1 (stereo not drawn), which solubility kinetic is on record?
The solubility kinetic was > 48.5 µg/mL.

Which solubility kinetic does the source give for C/C(=N\O)C(C)(C)Nc1ccc(F)cc1 here?
The solubility kinetic was > 31.5 µg/mL.

Which solubility kinetic does the source give for Cc1ccc(NC(=O)Nc2cccc(C)n2)cc1 here?
The solubility kinetic was 0.8 µg/mL (≈ 3.32 µM).

Which solubility kinetic does the source give for O=C(NC(=O)c1c(F)cccc1F)Nc1ccccc1SC(F)F here?
Its solubility kinetic is < 0.4 µg/mL.

For CCOC(=O)c1ccc(Nc2c(OCC)c(=O)c2=O)cc1, which solubility kinetic is on record?
Its solubility kinetic is 21.6 µg/mL (≈ 74.7 µM).

Which solubility kinetic does the source give for Cc1[nH]c2ccccc2c1/C=C(\C#N)C(=O)NCC1CCCO1 (stereo not drawn) here?
The solubility kinetic was 20.6 µg/mL (≈ 66.6 µM).

Which solubility kinetic does the source give for CC(C)c1ccc(NC(=S)NN2CCN(C)CC2)cc1 here?
The solubility kinetic was > 43.9 µg/mL.

Which solubility kinetic does the source give for O=C(CN1C(=O)c2cccc3cccc1c23)NC1CCCCC1 here?
Its solubility kinetic is 1.8 µg/mL (≈ 5.84 µM).

With NC(CSCc1ccccc1Cl)C(=O)O (stereo not drawn) as the compound, how does the solubility kinetic read?
Its solubility kinetic is > 36.9 µg/mL.

For Cc1ccc(CNS(=O)(=O)c2ccc(C(F)(F)F)cc2)n1C, which solubility kinetic is on record?
The solubility kinetic was 30.6 µg/mL (≈ 92.1 µM).

Which solubility kinetic does the source give for CCOC(=O)c1c(NC(=O)CNC2CCCCC2)sc(C)c1C here?
Its solubility kinetic is < 0.4 µg/mL.

For Cc1ccccc1CC(=O)Nc1ccc2c(C)cc(=O)oc2c1, which solubility kinetic is on record?
Its solubility kinetic is 2.1 µg/mL (≈ 6.83 µM).

With COc1ccc(OCC(=O)N(C)CC2COc3ccccc3O2)cc1 (stereo not drawn) as the compound, how does the solubility kinetic read?
The solubility kinetic was > 51.5 µg/mL.

For NS(=O)(=O)c1cccc(NC(=O)c2cccc(N3C(=O)c4ccccc4C3=O)c2)c1, which solubility kinetic is on record?
The solubility kinetic was 12.2 µg/mL (≈ 28.9 µM).

Which solubility kinetic does the source give for CCOc1ccccc1NC(=O)CN1C(=O)COc2ccccc21 here?
The solubility kinetic was 3.6 µg/mL (≈ 11 µM).

With CC(C)(C)S(=O)(=O)c1cnc(-c2ccc(Cl)cc2)nc1N as the compound, how does the solubility kinetic read?
The solubility kinetic was < 0.2 µg/mL.

With Cn1c(=O)c2c(nc3n2CC(COc2ccccc2)O3)n(C)c1=O (stereo not drawn) as the compound, how does the solubility kinetic read?
The solubility kinetic was > 49.2 µg/mL.

Which solubility kinetic does the source give for Cc1ccccc1-c1nc2sc(C)c(C)c2c(=O)o1 here?
The solubility kinetic was < 0.6 µg/mL.

Which solubility kinetic does the source give for Clc1cccc(C2Nc3cccc4cccc(c34)N2)c1 here?
The solubility kinetic was 5.3 µg/mL (≈ 18.9 µM).

For Cn1c(SCc2ccccc2Br)nc2ccccc2c1=O, which solubility kinetic is on record?
The solubility kinetic was 0.4 µg/mL (≈ 1.11 µM).

For O=C(COc1ccccc1[N+](=O)[O-])NCCC1=CCCCC1, which solubility kinetic is on record?
Its solubility kinetic is 31.8 µg/mL (≈ 104 µM).

For CCCOc1ccc(/C=C/C(=O)NC2CCCCC2)cc1OC, which solubility kinetic is on record?
The solubility kinetic was < 0.7 µg/mL.

For O=C(Nc1ccccc1Cl)NC1(C(=O)N2CCC(O)CC2)CCCCC1, which solubility kinetic is on record?
The solubility kinetic was > 57 µg/mL.

With O=C(NCCOc1ccc(Cl)cc1)c1ccc2ccccc2n1 as the compound, how does the solubility kinetic read?
The solubility kinetic was 4 µg/mL (≈ 12.2 µM).

For O=C(O)c1ccccc1Sc1ncnc2sccc12, which solubility kinetic is on record?
Its solubility kinetic is > 43.3 µg/mL.

With O=C(OCC(=O)N1CCCCCC1)c1ccc([N+](=O)[O-])cc1Cl as the compound, how does the solubility kinetic read?
Its solubility kinetic is 50 µg/mL (≈ 147 µM).

For COc1ccc(C(=O)NC(=S)N2CCC(C)CC2)cc1Br, which solubility kinetic is on record?
Its solubility kinetic is 8 µg/mL (≈ 21.5 µM).

With Cc1cc(C)nc(NC(C)(C)C(=O)O)n1 as the compound, how does the solubility kinetic read?
The solubility kinetic was > 31.4 µg/mL.

For O=C(O)c1cc(S(=O)(=O)N2CCN(S(=O)(=O)c3ccc4ccccc4c3)CC2)ccc1Br, which solubility kinetic is on record?
Its solubility kinetic is 77 µg/mL (≈ 143 µM).

For Cc1cc(C)cc(OCC(=O)O/N=C(\N)c2ccccc2Cl)c1, which solubility kinetic is on record?
The solubility kinetic was 13.3 µg/mL (≈ 40 µM).

With COc1ccc(CNC(=O)c2[nH]c(C)c(C(C)=O)c2C)cc1 as the compound, how does the solubility kinetic read?
The solubility kinetic was > 45.1 µg/mL.

For O=C(Nc1ccncc1)c1ccc(N2CCCC2=O)cc1, which solubility kinetic is on record?
Its solubility kinetic is > 42.2 µg/mL.

For CCC(=O)N/C(=N/c1nc(C)cc(C)n1)Nc1ccc(C)cc1, which solubility kinetic is on record?
Its solubility kinetic is 1.7 µg/mL (≈ 5.46 µM).

Which solubility kinetic does the source give for Cc1cc(C=NCCO)c(C)n1-c1cc(Cl)ccc1Cl here?
The solubility kinetic was 29.2 µg/mL (≈ 93.8 µM).

For Cc1cc(C)c2c(CN3CCC(C)CC3)cc(=O)oc2c1, which solubility kinetic is on record?
The solubility kinetic was 4.3 µg/mL (≈ 15.1 µM).

Which solubility kinetic does the source give for O=C(COC(=O)/C=C/c1ccc(S(=O)(=O)N2CCOCC2)cc1)Nc1ccccc1F here?
The solubility kinetic was 12.5 µg/mL (≈ 27.9 µM).

For Cc1cccc(Nc2nc(N)c([N+](=O)[O-])c(NCc3ccccc3)n2)c1, which solubility kinetic is on record?
The solubility kinetic was 0.7 µg/mL (≈ 2 µM).

For CCN(Cc1nc(-c2ccc(OC)cc2)no1)C(=O)c1ccoc1C, which solubility kinetic is on record?
The solubility kinetic was 41.1 µg/mL (≈ 120 µM).

Which solubility kinetic does the source give for Cc1ccc(CC2CC(=O)N(c3nc(C)cc(C)n3)C2=O)cc1 (stereo not drawn) here?
Its solubility kinetic is > 46.4 µg/mL.

With CC(=NCCN(C)C)c1c(O)n(Cc2ccccc2)c(=O)[nH]c1=O as the compound, how does the solubility kinetic read?
The solubility kinetic was > 49.6 µg/mL.
